Assay results as given in patent US20050245527A1, “Nitrogen containing heterocyclic compounds and medicines containing the same” (priority 2002, published 2005).
Counter-ions that a name gives are not always drawn.

Each compound was assayed on sodium channels. Details: read-out: IC50 (μM), sodium channel-inhibiting activity; rat fetal cultured hippocampal neurons, SBFI fluorescence in the presence of 4-aminopyridine, 5 minutes after addition, 1 μM tetrodotoxin = 100%.
Format: cell-based

Compound | IC50
COc1ccccc1OCC1(C)CCN(Cc2ncc[nH]c2=O)CC1 [Example 356, 3-[4-(2-Methoxyphenoxymethyl)-4-methylpiperidino]methyl-1H-pyrazin-2-one] | 2.9 µM
CON=C(Cc1ccccc1F)C1CCN(Cc2ncc[nH]c2=O)CC1 [Example 203, 3-[4-[2-(2-Fluorophenyl)-1-(methoxyimino)ethyl]piperidino]methyl-1H-pyrazin-2-one] | 2.3 µM
O=c1[nH]ccnc1CN1CCC(C(Cc2ccccc2F)=NO)CC1 [Example 202, 3-[4-[1-Hydroxyimino-2-(2-fluorophenyl)ethyl]piperidino]methyl-1H-pyrazin-2-one] | 4.9 µM
O=c1[nH]ccnc1CN1CCCCC1CCOc1ccccc1F (stereo not shown) [Example 209, 3-[2-[2-(2-Fluorophenoxy)ethyl]piperidino]methyl-1H-pyrazin-2-one] | 2.1 µM
O=c1cncc(CCN2CCCC(COc3ccccc3F)C2)[nH]1 (stereo not shown) [Example 117, 6-[2-[3-(2-Fluorophenoxymethyl)piperidino]ethyl]-1H-pyrazin-2-one] | 4.4 µM
O=c1cncc(CCN2CCC(O)(COc3ccccc3F)CC2)[nH]1 [Example 118, 6-[2-[4-Hydroxy-4-(2-fluorophenoxymethyl)piperidino]ethyl]-1H-pyrazin-2-one] | 3.1 µM
O=c1[nH]ccnc1CN1CCC(CO)(CCc2ccccc2)CC1 [Example 219, 3-[4-Hydroxymethyl-4-(2-phenylethyl)piperidino]methyl-1H-pyrazin-2-one] | 1.6 µM
Cc1ccc(-c2ccccc2)n1CC1CCN(Cc2ncc[nH]c2=O)CC1 [Example 182, 3-[4-(2-Methyl-5-phenylpyrrol-1-yl)methyl-piperidino]methyl-1H-pyrazin-2-one] | 7.8 µM
O=c1[nH]ccnc1CN1CCC([S+]([O-])Cc2ccccc2F)CC1 (stereo not shown) [Example 398, 3-[4-(2-Fluorobenzylsulfinyl)piperidino]methyl-1H-pyrazin-2-one] | 3.4 µM
C[C@@H]1CN(Cc2ncc[nH]c2=O)CC[C@H]1C(=O)Cc1ccccc1F (relative stereo) [Example 366, trans-3-[4-[2-(2-Fluorophenyl)acetyl]-3-methylpiperidino]methyl-1H-pyrazin-2-one] | 4.2 µM
CC(c1ncc[nH]c1=O)N1CCC(COc2ccccc2F)CC1 (stereo not shown) [Example 395, 3-[1-[4-(2-Fluorophenoxymethyl)piperidino]ethyl]-1H-pyrazin-2-one oxalate] | 6.7 µM
O=C(Cc1ccccc1F)C1CCN(Cc2ccn[nH]c2=O)CC1 [Example 364, 4-[4-[2-(2-Fluorophenyl)acetyl]piperidino]methyl-2H-pyridazin-3-one] | 9.3 µM
O=c1cncc(CCN2CCC(COc3cccc(F)c3)CC2)[nH]1 [Example 238, 6-[2-[4-(3-Fluorophenoxymethyl)piperidino]ethyl]-1H-pyrazin-2-one] | 5.6 µM
O=c1[nH]ccnc1CN1CCC(CSc2ccccc2F)CC1 [Example 336, 3-[4-[(2-Fluorophenylthio)methyl]piperidino]methyl-1H-pyrazin-2-one] | 4.7 µM
O=c1[nH]ccnc1CN1CCC(CC(O)c2ccccc2F)CC1 (stereo not shown) [Example 144, 3-[4-[2-(2-Fluorophenyl)-2-hydroxyethyl]piperidino]methyl-1H-pyrazin-2-one] | 5.8 µM
O=C1CN(Cc2ncc[nH]c2=O)CCC1CCc1ccccc1F (stereo not shown) [Example 371, 3-[4-[2-(2-Fluorophenyl)ethyl]-3-oxopiperidino]methyl-1H-pyrazin-2-one] | 9 µM
CC1(COc2ccccc2Cl)CCN(Cc2ncc[nH]c2=O)CC1 [Example 354, 3-[4-(2-Chlorophenoxymethyl)-4-methylpiperidino]methyl-1H-pyrazin-2-one] | 2.8 µM
CC(Oc1ccccc1F)C1CCN(Cc2ncc[nH]c2=O)CC1 (stereo not shown) [Example 175, 3-[4-[1-(2-Fluorophenoxy)ethyl]piperidino]methyl-1H-pyrazin-2-one] | 2.6 µM
COC(Cc1ccccc1F)C1CCN(Cc2ncc[nH]c2=O)CC1 (stereo not shown) [Example 190, 3-[4-[2-(2-Fluorophenyl)-1-methoxyethyl]piperidino]methyl-1H-pyrazin-2-one] | 1.2 µM
